What all share (assay): AK assay 384-well format, Prestwick library screening
In test [1] the test system is S. aureus strain USA300-0114. In kind it is cell-based, Staphylococcus aureus. As to conditions: 50 μM final drug concentration; for fold induction at 50 µM: Staphylococcus aureus, USA300, 3 h.
A further test relates to E. cloacae. In kind it is cell-based, Enterobacter cloacae. The note with it: 50 μM final drug concentration; for fold induction at 50 µM: Enterobacter cloacae, 3 h.
The next test relates to P. aeruginosa. In kind it is cell-based, Pseudomonas aeruginosa. The note with it: 50 μM final drug concentration; for fold induction at 50 µM: Pseudomonas aeruginosa, 3 h.
The test system of test [2] is A. baumannii strain 98-37-09. Type of test: cell-based, Acinetobacter baumannii. As to conditions: 50 μM final drug concentration; for fold induction at 50 µM: Acinetobacter baumannii, 983709, 3 h.
A further test relates to E. faecium. Type of test: cell-based, Enterococcus faecium. As to conditions: 50 μM final drug concentration; for fold induction at 50 µM: Enterococcus faecium, 3 h.
The test system of a further test is K. pneumoniae. In kind it is cell-based, Klebsiella pneumoniae. As to conditions: 50 μM final drug concentration; for fold induction at 50 µM: Klebsiella pneumoniae, 3 h.
A further test has as its system E. coli. In kind it is cell-based, Escherichia coli. The note with it: 50 μM final drug concentration; for fold induction at 50 µM: Escherichia coli, 3 h.
The mark [3] stands for this setting: cutoff for positive-scoring molecules 3-fold increase.
Setting [4] is: planktonic, cutoff for positive 3-fold increase.

Counter-ions that a name gives are not always drawn. Like-named read-outs stand apart in the source and are kept apart here.

`Fc1ccc(C(OCCN2CCN(CCCc3ccccc3)CC2)c2ccc(F)cc2)cc1` [GBR 12909 dihydrochloride]: the fold induction at 50 µM was 1.5 in test [1] (planktonic, cutoff for positive 3-fold increase, read-out: AK-based Prestwick Library Screening Results, S. aureus (fold increase in extracellular AK activity)); 1.5 in the test with E. cloacae (planktonic, cutoff for positive 3-fold increase, read-out: AK-based Prestwick Library Screening Results, E. cloacae (fold increase in extracellular AK activity)); 1.2 in the test on P. aeruginosa (planktonic, cutoff for positive 3-fold increase, read-out: AK-based Prestwick Library Screening Results, P. aeruginosa (fold increase in extracellular AK activity)); 2.2 in test [2] (planktonic, cutoff for positive 3-fold increase, read-out: AK-based Prestwick Library Screening Results, A. baumannii (fold increase in extracellular AK activity)); 1.3 with E. faecium (planktonic, cutoff for positive 3-fold increase, read-out: AK-based Prestwick Library Screening Results, E. faecium (fold increase in extracellular AK activity)); 1 in the test on K. pneumoniae (planktonic, cutoff for positive 3-fold increase, read-out: AK-based Prestwick Library Screening Results, K. pneumoniae (fold increase in extracellular AK activity)). The fold induction at 50 µM with E. coli (planktonic, cutoff for positive 3-fold increase, read-out: AK-based Prestwick Library Screening Results, E. coli (fold increase in extracellular AK activity)) worked out at 1.4.

For the molecule `CN1[C@@H]2CC[C@H]1C[C@@H](O)C2` [Tropine], the fold induction at 50 µM in test [1] (planktonic S. aureus, […], read-out: AK-based Prestwick library screening result, S. aureus (fold increase in extracellular AK activity)) worked out at 0.7; with E. cloacae (planktonic E. cloacae, […], read-out: AK-based Prestwick library screening result, E. cloacae (fold increase in extracellular AK activity)) it was 1.2; with P. aeruginosa (planktonic P. aeruginosa, […], read-out: AK-based Prestwick library screening result, P. aeruginosa (fold increase in extracellular AK activity)), 0.8; in test [2] (planktonic A. baumannii, […], read-out: AK-based Prestwick library screening result, A. baumannii (fold increase in extracellular AK activity)), 0.8; in the test with E. faecium (planktonic E. faecium, […], read-out: AK-based Prestwick library screening result, E. faecium (fold increase in extracellular AK activity)) it was 0.9; with K. pneumoniae (planktonic K. pneumoniae, […], read-out: AK-based Prestwick library screening result, K. pneumoniae (fold increase in extracellular AK activity)), 0.8. The fold induction at 50 µM with E. coli (planktonic E. coli, […], read-out: AK-based Prestwick library screening result, E. coli (fold increase in extracellular AK activity)) amounted to 0.9.

Consider `Cc1c(N(C)CS(=O)(=O)[O-])c(=O)n(-c2ccccc2)n1C.[Na+]` [Dipyrone], for which, in test [1] (setting [3]), the “AK-based Prestwick Library Screening Results, S. aureus (fold increase in extracellular AK activity)” value turned out to be 1.4. Also, the “AK-based Prestwick Library Screening Results, E. cloacae (fold increase in extracellular AK activity)” value with E. cloacae (setting [3]) worked out at 1.4. Further, the “AK-based Prestwick Library Screening Results, P. aeruginosa (fold increase in extracellular AK activity)” value in the test with P. aeruginosa (setting [3]) was determined as 1.1. For the same molecule, the “AK-based Prestwick Library Screening Results, A. baumannii (fold increase in extracellular AK activity)” value in test [2] (setting [3]) was 1.1. Moreover, in the test on E. faecium (setting [3]), the “AK-based Prestwick Library Screening Results, E. faecium (fold increase in extracellular AK activity)” value turned out to be 1.0. Also, the “AK-based Prestwick Library Screening Results, K. pneumoniae (fold increase in extracellular AK activity)” value in the test with K. pneumoniae (setting [3]) stood at 1.1. Moreover, the “AK-based Prestwick Library Screening Results, E. coli (fold increase in extracellular AK activity)” value with E. coli (setting [3]) was 1.1.

In the case of `N=C(N)N/N=C/c1c(Cl)cccc1Cl` [Guanabenz acetate], the fold induction at 50 µM was 0.5 in test [1] (384-well format, cutoff for positive-scoring molecules 3-fold increase, read-out: AK-based Prestwick Library Screening Results, S. aureus (increase in extracellular AK activity)); 0.7 in the test with E. cloacae (384-well format, cutoff for positive-scoring molecules 3-fold increase, read-out: AK-based Prestwick Library Screening Results, E. cloacae (increase in extracellular AK activity)); 0.6 in the test with P. aeruginosa (384-well format, cutoff for positive-scoring molecules 3-fold increase, read-out: AK-based Prestwick Library Screening Results, P. aeruginosa (increase in extracellular AK activity)); 0.8 in test [2] (384-well format, cutoff for positive-scoring molecules 3-fold increase, read-out: AK-based Prestwick Library Screening Results, A. baumannii (increase in extracellular AK activity)); 1 with E. faecium (384-well format, cutoff for positive-scoring molecules 3-fold increase, read-out: AK-based Prestwick Library Screening Results, E. faecium (increase in extracellular AK activity)); 0.4 in the test on K. pneumoniae (384-well format, cutoff for positive-scoring molecules 3-fold increase, read-out: AK-based Prestwick Library Screening Results, K. pneumoniae (increase in extracellular AK activity)). Moreover, the fold induction at 50 µM with E. coli (384-well format, cutoff for positive-scoring molecules 3-fold increase, read-out: AK-based Prestwick Library Screening Results, E. coli (increase in extracellular AK activity)) stood at 0.7.

With `CN1[C@@H](C[C@@H](O)c2ccccc2)CCC[C@H]1C[C@H](O)c1ccccc1.Cl` [Lobelanidine hydrochloride], the “AK-based Prestwick Library Screening Results, S. aureus (increase in extracellular AK activity)” value in test [1] (planktonic S. aureus, cutoff for positive-scoring molecules 3-fold increase) is recorded as 0.6. Also, in the test with E. cloacae (planktonic E. cloacae, cutoff for positive-scoring molecules 3-fold increase), the “AK-based Prestwick Library Screening Results, E. cloacae (increase in extracellular AK activity)” value is on record as 1.0. For the same molecule, the “AK-based Prestwick Library Screening Results, P. aeruginosa (increase in extracellular AK activity)” value with P. aeruginosa (planktonic P. aeruginosa, cutoff for positive-scoring molecules 3-fold increase) was 1.0. In test [2] (planktonic A. baumannii, cutoff for positive-scoring molecules 3-fold increase), the “AK-based Prestwick Library Screening Results, A. baumannii (increase in extracellular AK activity)” value is reported as 1.0. Also, in the test on E. faecium (planktonic E. faecium, cutoff for positive-scoring molecules 3-fold increase), the “AK-based Prestwick Library Screening Results, E. faecium (increase in extracellular AK activity)” value came to 0.9. The “AK-based Prestwick Library Screening Results, K. pneumoniae (increase in extracellular AK activity)” value in the test with K. pneumoniae (planktonic K. pneumoniae, cutoff for positive-scoring molecules 3-fold increase) was 0.8. Also, the “AK-based Prestwick Library Screening Results, E. coli (increase in extracellular AK activity)” value with E. coli (planktonic E. coli, […]) was 1.0.

As for `CN1CCCN(C(c2ccccc2)c2ccc(Cl)cc2)CC1` (centres unmarked) [Homochlorcyclizine dihydrochloride], the fold induction at 50 µM in test [1] (planktonic S. aureus, 384-well, […], read-out: AK-based Prestwick Library Screening Results: S. aureus (increase in extracellular AK activity)) was found to be 1; with E. cloacae (planktonic E. cloacae, 384-well, […], read-out: AK-based Prestwick Library Screening Results: E. cloacae (increase in extracellular AK activity)), 1.8; in the test with P. aeruginosa (planktonic P. aeruginosa, 384-well, […], read-out: AK-based Prestwick Library Screening Results: P. aeruginosa (increase in extracellular AK activity)), 1.2; in test [2] (planktonic A. baumannii, 384-well, […], read-out: AK-based Prestwick Library Screening Results: A. baumannii (increase in extracellular AK activity)) it was 1.2; with E. faecium (planktonic E. faecium, 384-well, […], read-out: AK-based Prestwick Library Screening Results: E. faecium (increase in extracellular AK activity)), 1.2; in the test on K. pneumoniae (planktonic K. pneumoniae, 384-well, […], read-out: AK-based Prestwick Library Screening Results: K. pneumoniae (increase in extracellular AK activity)) it was 1.1. Also, in the test on E. coli (planktonic E. coli, 384-well, […], read-out: AK-based Prestwick Library Screening Results: E. coli (increase in extracellular AK activity)), the fold induction at 50 µM stood at 1.5.

As for `COc1cc(CNC(=O)CCCC/C=C/C(C)C)ccc1O` [Capsaicin], the fold induction at 50 µM in test [1] (cutoff for positive-scoring molecules 3-fold increase, read-out: AK-based Prestwick Library Screening Results, S. aureus (fold increase in extracellular AK activity)) came out at 1.2; with E. cloacae (cutoff for positive-scoring molecules 3-fold increase, read-out: AK-based Prestwick Library Screening Results, E. cloacae (fold increase in extracellular AK activity)), 1.5; in the test on P. aeruginosa (cutoff for positive-scoring molecules 3-fold increase, read-out: AK-based Prestwick Library Screening Results, P. aeruginosa (fold increase in extracellular AK activity)), 1.1; in test [2] (cutoff for positive-scoring molecules 3-fold increase, read-out: AK-based Prestwick Library Screening Results, A. baumannii (fold increase in extracellular AK activity)), 1.2; in the test on E. faecium (cutoff for positive-scoring molecules 3-fold increase, read-out: AK-based Prestwick Library Screening Results, E. faecium (fold increase in extracellular AK activity)), 1.1; with K. pneumoniae (cutoff for positive-scoring molecules 3-fold increase, read-out: AK-based Prestwick Library Screening Results, K. pneumoniae (fold increase in extracellular AK activity)) it was 1. Further, the fold induction at 50 µM in the test with E. coli (cutoff for positive-scoring molecules 3-fold increase, read-out: AK-based Prestwick Library Screening Results, E. coli (fold increase in extracellular AK activity)) is 1.3.

Take `CN(Cc1cnc2nc(N)nc(N)c2n1)c1ccc(C(=O)N[C@@H](CCC(=O)O)C(=O)O)cc1` (racemic) [Amethopterin (R,S)]: the “AK-based Prestwick Library Screening Results, S. aureus (fold increase in extracellular AK activity)” value in test [1] (setting [4]) turned out to be 1.0. In addition, in the test with E. cloacae (setting [4]), the “AK-based Prestwick Library Screening Results, E. cloacae (fold increase in extracellular AK activity)” value was 1.3. Also, in the test on P. aeruginosa (setting [4]), the “AK-based Prestwick Library Screening Results, P. aeruginosa (fold increase in extracellular AK activity)” value is reported as 1.1. Further, the “AK-based Prestwick Library Screening Results, A. baumannii (fold increase in extracellular AK activity)” value in test [2] (setting [4]) is given as 0.9. For the same molecule, the “AK-based Prestwick Library Screening Results, E. faecium (fold increase in extracellular AK activity)” value in the test with E. faecium (setting [4]) is reported as 0.9. Besides, the “AK-based Prestwick Library Screening Results, K. pneumoniae (fold increase in extracellular AK activity)” value in the test on K. pneumoniae (setting [4]) came out at 0.8. Moreover, the “AK-based Prestwick Library Screening Results, E. coli (fold increase in extracellular AK activity)” value in the test on E. coli (setting [4]) was determined as 1.1.

Source of the values: patent publication US10004701B2, “Methods and compositions for treating infection” (UNIVERSITY OF ROCHESTER, priority 2012, dated 2018).
